A word on the IC50: it is the concentration needed to halve the response being measured.

Molecules are shown by their SMILES. Like-named read-outs stand apart in the source and are kept apart here.

The record followed here is patent publication US20240390340A1 (INCYTE CORPORATION, priority 2023, published 2024).

In one test the target is KRAS G12D (Homo sapiens, UniProt P01116, G12D). The test is described as follows: GDP-GTP exchange assay (bodipy-GDP/GppNHp, SOS1), KRAS G12D. In kind it is biochemical.
For another test, the target named is KRAS G12V (Homo sapiens, UniProt P01116, G12V). The test is described as follows: GDP-GTP exchange assay (bodipy-GDP/GppNHp, SOS1), KRAS G12V. Format: biochemical.
Where [1] appears, read: bodipy-loaded KRAS G12D 2.5 nM, 4 h pre-incubation, value for the most potent isomer quoted for certain compounds, read-out: G12D (KRAS G12D exchange assay IC50).
The mark [2] stands for this setting: KRAS G12V mutant, value for the most potent isomer quoted for certain compounds, read-out: G12V (KRAS G12V exchange assay IC50).

KRAS G12V, sequence (P01116 1-188 isoform P01116-2 G12V): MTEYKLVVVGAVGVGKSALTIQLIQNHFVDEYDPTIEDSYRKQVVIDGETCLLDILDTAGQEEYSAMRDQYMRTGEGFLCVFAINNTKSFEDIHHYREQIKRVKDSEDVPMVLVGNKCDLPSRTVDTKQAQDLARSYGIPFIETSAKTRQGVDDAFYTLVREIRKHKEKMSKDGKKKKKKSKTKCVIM
KRAS G12D, sequence (P01116 1-188 isoform P01116-2 G12D): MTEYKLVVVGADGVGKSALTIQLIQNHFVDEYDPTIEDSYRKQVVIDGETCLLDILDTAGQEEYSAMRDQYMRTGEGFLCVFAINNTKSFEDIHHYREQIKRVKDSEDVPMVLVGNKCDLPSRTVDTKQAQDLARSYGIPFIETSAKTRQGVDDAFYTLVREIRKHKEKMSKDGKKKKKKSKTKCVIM

Turning to `Cc1nc2c(F)c(-c3cccc(Cl)c3Cl)c(CCC#N)cc2c2c1cc([C@H]1C[C@H](Oc3cccnn3)CN1C(=O)C1CC1)n2[C@H]1[C@H]2CN[C@@H]1C2` [Example 138], the concentration for half-maximal inhibition (IC50) at KRAS G12D (setting [1]) and at KRAS G12V (setting [2]) was at most 100 nM each time.
Regarding `Cc1nc2c(F)c(-c3cccc(Cl)c3Cl)c(CCC#N)cc2c2c1cc([C@H]1C[C@H](Oc3ccnn3C)CN1C(=O)C1CC1)n2[C@H]1[C@H]2CN[C@@H]1C2` [Example 175], the half-inhibitory concentration (IC50) at KRAS G12D (setting [1]) and at KRAS G12V (setting [2]) was at most 100 nM each time.
On to `Cc1nc2c(F)c(-c3cccc(Cl)c3Cl)c(CCC#N)cc2c2c1cc([C@H]1C[C@H](Oc3ccnc4c3CCO4)CN1C(=O)C1CC1)n2[C@H]1[C@H]2CN[C@@H]1C2` [Example 329], for which the IC50 at KRAS G12D (setting [1]) and at KRAS G12V (setting [2]) was at most 100 nM in each case.
As to `COC(=O)N1C[C@@H](Oc2ccccn2)C[C@@H]1c1cc2c(C)nc3c(F)c(-c4cccc(Cl)c4Cl)c(CCC#N)cc3c2n1[C@H]1[C@H]2CN[C@@H]1C2` [Example 162], the IC50 at KRAS G12D (setting [1]) and at KRAS G12V (setting [2]) was at most 100 nM throughout.
For `Cc1ccc(CO[C@H]2C[C@H](c3cc4c(C)nc5c(F)c(-c6cccc(Cl)c6Cl)c(CCC#N)cc5c4n3[C@H]3[C@H]4CN[C@@H]3C4)N(C(=O)C3CC3)C2)cc1` [Example 92], the IC50 on KRAS G12D (setting [1]) and at KRAS G12V (setting [2]) was at most 100 nM each time.
In the case of `C[C@@H](O)c1nc2c(F)c(-c3cccc(Cl)c3Cl)c(CCC#N)cc2c2c1cc([C@H]1[C@@H](F)[C@H](Oc3ccccn3)CN1C(=O)C1CC1)n2[C@H]1[C@H]2CN[C@@H]1C2` [Example 85], the 50% inhibitory concentration (IC50) on KRAS G12D (setting [1]) and at KRAS G12V (setting [2]) was at most 100 nM throughout.
On to `Cc1nc2c(F)c(-c3cccc(Cl)c3Cl)c(CCC#N)cc2c2c1cc([C@H]1C[C@H](n3cc(C(F)F)nn3)CN1C(=O)C1CC1)n2[C@H]1[C@H]2CN[C@@H]1C2` [Example 380], for which the IC50 on KRAS G12D (setting [1]) and on KRAS G12V (setting [2]) was at most 100 nM in each case.
As for `Cc1nc2c(F)c(-c3cccc(Cl)c3Cl)c(CCC#N)cc2c2c1cc([C@H]1C[C@H](OC[C@@H]3CCCC[C@H]3C)CN1C(=O)C1CC1)n2[C@H]1[C@H]2CN[C@@H]1C2` [Example 286], the concentration for half-maximal inhibition (IC50) on KRAS G12D (setting [1]) was in the range of 1000 to 5000 nM; at KRAS G12V (setting [2]), 100 to 1000 nM.
The corresponding values for `Cc1nc2c(F)c(-c3cccc(Cl)c3Cl)c(CCC#N)cc2c2c1cc([C@H]1C[C@H](OCc3ccccc3C(F)(F)F)CN1C(=O)C1CC1)n2[C@H]1[C@H]2CN[C@@H]1C2` [Example 117] are at most 100 nM and at most 100 nM.
`Cc1nc2c(F)c(-c3cccc(Cl)c3Cl)c(CCC#N)cc2c2c1cc([C@H]1C[C@H](OC(F)(F)c3ccccc3)CN1C(=O)C1CC1)n2[C@H]1[C@H]2CN[C@@H]1C2` [Example 79, 3-(1-((1R,4R,5S)-2-Azabicyclo[2.1.1]hexan-5-yl)-2-((2R,4S)-1-(cyclopropanecarbonyl)-4-(difluoro(phenyl)methoxy)pyrrolidin-2-yl)-7-(2,3-dichlorophenyl)-6-fluoro-4-methyl-1H-pyrrolo[3,2-c]quinolin-8-yl)propanenitrile]: the half-inhibitory concentration (IC50) at KRAS G12D (Table H, column G12D, for compounds isolated as several atropisomers/diastereoisomers the value for the most potent isomer is quoted, read-out: KRAS G12D exchange assay IC50) was at most 100 nM; at KRAS G12V (Table H, column G12V, for compounds isolated as several atropisomers/diastereoisomers the value for the most potent isomer is quoted, read-out: KRAS G12V exchange assay IC50) it was at most 100 nM.
As for `Cc1nc2c(F)c(-c3cccc(Cl)c3Cl)c(CCC#N)cc2c2c1cc([C@H]1C[C@H](OCc3cnn(C(F)(F)F)c3)CN1C(=O)C1CC1)n2[C@H]1[C@H]2CN[C@@H]1C2` [Example 311], the IC50 at KRAS G12D (setting [1]) and on KRAS G12V (setting [2]) was at most 100 nM in each case.
With `Cc1ccnc(C)c1CO[C@H]1C[C@H](c2cc3c(C)nc4c(F)c(-c5cccc(Cl)c5Cl)c(CCC#N)cc4c3n2[C@H]2[C@H]3CN[C@@H]2C3)N(C(=O)C2(C)CC2)C1` [Example 140], the half-maximal inhibitory concentration (IC50) on KRAS G12D (setting [1]) and on KRAS G12V (setting [2]) was at most 100 nM in each case.
Regarding `Cc1cc(-c2nc3c(F)c(-c4cccc(Cl)c4Cl)c(CCC#N)cc3c3c2cc([C@H]2C[C@H](OCc4c(F)cccc4F)CN2C(=O)C2CC2)n3[C@H]2[C@H]3CN[C@@H]2C3)cc(C)n1` [Example 208], the IC50 at KRAS G12D (setting [1]) and on KRAS G12V (setting [2]) was 5000 to 10000 nM in each case.
For the molecule `Cc1csc(CO[C@H]2C[C@H](c3cc4c(C)nc5c(F)c(-c6cccc(Cl)c6Cl)c(CCC#N)cc5c4n3[C@H]3[C@H]4CN[C@@H]3C4)N(C(=O)C3CC3)C2)n1` [Example 359], the IC50 at KRAS G12D (setting [1]) and on KRAS G12V (setting [2]) was at most 100 nM throughout.
Turning to `Cc1nc2c(F)c(-c3cccc(Cl)c3Cl)c(CCC#N)cc2c2c1cc([C@H]1C[C@H](OCc3cc(C(F)(F)F)on3)CN1C(=O)C1CC1)n2[C@H]1[C@H]2CN[C@@H]1C2` [Example 361], the half-inhibitory concentration (IC50) on KRAS G12D (setting [1]) and at KRAS G12V (setting [2]) was at most 100 nM in each case.
With `Cc1cn([C@H]2C[C@H](c3cc4c(C)nc5c(F)c(-c6cccc(Cl)c6Cl)c(CCC#N)cc5c4n3[C@H]3[C@H]4CN[C@@H]3C4)N(C(=O)C3CC3)C2)nn1` [Example 343], the IC50 at KRAS G12D (setting [1]) and on KRAS G12V (setting [2]) was at most 100 nM in each case.
Consider `Cc1nc2c(F)c(-c3cccc(Cl)c3Cl)c(CCC#N)cc2c2c1cc([C@H]1C[C@H](Oc3nn(C)c4ccccc34)CN1C(=O)C1CC1)n2[C@H]1[C@H]2CN[C@@H]1C2` [Example 192], for which the IC50 on KRAS G12D (setting [1]) and on KRAS G12V (setting [2]) was at most 100 nM each time.
Turning to `Cc1nc2c(F)c(-c3cccc(Cl)c3Cl)c(CCC#N)cc2c2c1cc([C@H]1C[C@H](c3ccccc3)CN1C(=O)C1CC1)n2[C@H]1[C@H]2CN[C@@H]1C2` [Example 109], the IC50 on KRAS G12D (setting [1]) and at KRAS G12V (setting [2]) was at most 100 nM each time.
With `Cc1ccc(O[C@H]2C[C@H](c3cc4c(C)nc5c(F)c(-c6cccc(Cl)c6Cl)c(CCC#N)cc5c4n3[C@H]3[C@H]4CN[C@@H]3C4)N(C(=O)C3CC3)C2)cc1` [Example 118], the half-inhibitory concentration (IC50) at KRAS G12D (setting [1]) and on KRAS G12V (setting [2]) was at most 100 nM each time.
Turning to `Cc1nc2c(F)c(-c3cccc(Cl)c3Cl)c(CCC#N)cc2c2c1cc([C@H]1C[C@H](OC(C)c3ccccn3)CN1C(=O)C1CC1)n2[C@H]1[C@H]2CN[C@@H]1C2` (stereo partly shown) [Example 226], the IC50 on KRAS G12D (setting [1]) and on KRAS G12V (setting [2]) was at most 100 nM in each case.
As to `Cc1nc(C)n([C@H]2C[C@H](c3cc4c(C)nc5c(F)c(-c6cccc(Cl)c6Cl)c(CCC#N)cc5c4n3[C@H]3[C@H]4CN[C@@H]3C4)N(C(=O)C3CC3)C2)n1` [Example 350], the concentration for half-maximal inhibition (IC50) at KRAS G12D (setting [1]) and on KRAS G12V (setting [2]) was at most 100 nM each time.
In the case of `Cc1nc2c(F)c(-c3cccc(Cl)c3Cl)c(CCC#N)cc2c2c1cc([C@H]1C[C@H](n3cc4c(n3)CCC4)CN1C(=O)C1CC1)n2[C@H]1[C@H]2CN[C@@H]1C2` [Example 356], the 50% inhibitory concentration (IC50) at KRAS G12D (setting [1]) and on KRAS G12V (setting [2]) was at most 100 nM in each case.
As for `Cc1nc2c(F)c(-c3cccc(Cl)c3Cl)c(CCC#N)cc2c2c1cc([C@H]1C[C@H](Oc3cccnc3N)CN1C(=O)C1CC1)n2[C@H]1[C@H]2CN[C@@H]1C2` [Example 288], the IC50 on KRAS G12D (setting [1]) and at KRAS G12V (setting [2]) was at most 100 nM each time.
For `Cc1nc2c(F)c(-c3cccc(Cl)c3Cl)c(CCC#N)cc2c2c1cc([C@H]1C[C@H](Oc3ccc(C#N)nc3)CN1C(=O)C1CC1)n2[C@H]1[C@H]2CN[C@@H]1C2` [Example 290], the half-maximal inhibitory concentration (IC50) on KRAS G12D (setting [1]) and at KRAS G12V (setting [2]) was at most 100 nM in each case.
Turning to `Cc1cc(F)ncc1O[C@H]1C[C@H](c2cc3c(C)nc4c(F)c(-c5cccc(Cl)c5Cl)c(CCC#N)cc4c3n2[C@H]2[C@H]3CN[C@@H]2C3)N(C(=O)C2CC2)C1` [Example 283], the IC50 at KRAS G12D (setting [1]) and on KRAS G12V (setting [2]) was at most 100 nM in each case.
Consider `Cc1nc2c(F)c(-c3cccc(Cl)c3Cl)c(CCC#N)cc2c2c1cc([C@H]1C[C@H](Oc3cccc4c3cnn4C)CN1C(=O)C1CC1)n2[C@H]1[C@H]2CN[C@@H]1C2` [Example 133], for which the half-maximal inhibitory concentration (IC50) on KRAS G12D (setting [1]) and at KRAS G12V (setting [2]) was at most 100 nM throughout.
